Some results are limits rather than exact numbers.

The first test concerns YAP/TAZ-TEAD transcription. Description: Reporter gene assay for measuring the inhibition of YAP/TAZ-TEAD transcription (TEAD-responsive element luciferase reporter in Hek293T cells). Particulars: Hek293T cells transiently transfected with TEAD-responsive element luciferase reporter; 24 hours incubation. The class given is cell-based. The essentials:
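Hek293T cells transiently transfected with a TEAD-responsive element luciferase reporter, plated onto pre-diluted compounds and incubated 24 h at 37 °C/5% CO2. Luminescence read after SteadyLite addition; % inhibition from RLU relative to vehicle (0%) and a positive control inhibitor (100%), giving IC50.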
In general terms: Reporter assays use an easily measured gene product as a stand-in for the process of interest.
In general, IC50 refers to the point on the concentration scale where inhibition reaches its midpoint. Higher therefore signals weaker potency. For the compound `OCCNC1Cc2ccccc2N(c2ccc(C(F)(F)F)cc2)C1` (single isomer, unassigned) [043-En1, (R)- or (S)-2-((1-(4-(trifluoromethyl)phenyl)-1,2,3,4-tetrahydroquinolin-3-yl)amino)ethan-1-ol], the IC50 fell in the range of 1000 to 20000 nM.

`C=CC(=O)NCC1Cc2c(CC(=O)O)cccc2N(c2ccc(C(F)(F)F)cc2)C1` (centres unmarked) [Cpd. No. 161-En2, 2-(3-(acrylamidomethyl)-1-(4-(trifluoromethyl)phenyl)-1,2,3,4-tetrahydroquinolin-5-yl)acetic acid] gave a half-maximal inhibitory concentration (IC50) of 1000 to 20000 nM.

The same test, now with this note: Homo sapiens, HEK-293T, 24 h, Hek293T cells transiently transfected with TEAD-responsive element luciferase reporter; 24 hours incubation.
On to `C=CC(=O)NC1Cc2c(OC)cccc2N(c2ccc(C(F)(F)F)cc2)C1` (centres unmarked) [compound 073, N-(5-methoxy-1-(4-(trifluoromethyl)phenyl)-1,2,3,4-tetrahydroquinolin-3-yl)acrylamide], for which the half-inhibitory concentration (IC50) was below 1000 nM.

The compound `CS(=O)(=O)NC1Cc2ccccc2N(c2ccc(C(F)(F)F)cc2)C1` (centres unmarked) [compound 047, N-(1-(4-(trifluoromethyl)phenyl)-1,2,3,4-tetrahydroquinolin-3-yl)methanesulfonamide] showed a 50% inhibitory concentration (IC50) below 1000 nM.

`CC(C)=CC(=O)NCC1Cc2ccccc2N(c2ccc(C(F)(F)F)cc2)C1` (centres unmarked) [compound 099, 3-methyl-N-((1-(4-(trifluoromethyl)phenyl)-1,2,3,4-tetrahydroquinolin-3-yl)methyl)but-2-enamide] came in with an IC50 of 1000 to 20000 nM.

As for `C=CC(=O)NC1Cc2ccccc2N(c2ccc(C(=O)NC)cc2)C1` (centres unmarked) [compound 014, 4-(3-acrylamido-3,4-dihydroquinolin-1(2H)-yl)-N-methylbenzamide], the 50% inhibitory concentration (IC50) fell in the range of 1000 to 20000 nM.

As to `CCC(=O)NCC1Cc2ccccc2N(c2ccc(C(F)F)nc2)C1` (centres unmarked) [compound 152, N-((1-(6-(difluoromethyl)pyridin-3-yl)-1,2,3,4-tetrahydroquinolin-3-yl)methyl)propionamide], the IC50 lay in the range of 1000 to 20000 nM.

Consider `C=CC(=O)NC1Cc2c(Cc3cccc(F)c3)cccc2N(c2ccc(C(F)(F)F)cc2)C1` (centres unmarked) [compound 063, N-(5-(3-fluorobenzyl)-1-(4-(trifluoromethyl)phenyl)-1,2,3,4-tetrahydroquinolin-3-yl)acrylamide], for which the IC50 was below 1000 nM.

Compound `CS(=O)(=O)NCC1Cc2ccccc2N(c2ccc(C(F)(F)F)cc2)C1` (centres unmarked) [compound 121, N-((1-(4-(trifluoromethyl)phenyl)-1,2,3,4-tetrahydroquinolin-3-yl)methyl)methanesulfonamide] registered an IC50 below 1000 nM.

In turn, `CCC(=O)NC1Cc2c(Cc3ccccc3)cccc2N(c2ccc(C(F)(F)F)cc2)C1` (centres unmarked) [compound 067, N-(5-benzyl-1-(4-(trifluoromethyl)phenyl)-1,2,3,4-tetrahydroquinolin-3-yl)propionamide] showed an IC50 of 1000 to 20000 nM.

Compound `C=CC(=O)NCC1Cc2ccccc2N(c2cccc(F)c2F)C1` (centres unmarked) [compound 109, N-((1-(2,3-difluorophenyl)-1,2,3,4-tetrahydroquinolin-3-yl)methyl)acrylamide] displayed an IC50 below 1000 nM.

Consider `C=CC(=O)NC1Cc2ccccc2N(c2ccc(OC(F)F)cc2)C1` (centres unmarked) [compound 022, N-(1-(4-(difluoromethoxy)phenyl)-1,2,3,4-tetrahydroquinolin-3-yl)acrylamide], for which the 50% inhibitory concentration (IC50) was below 1000 nM.

Take `NC1Cc2ccccc2N(c2ccc(C(F)(F)F)cc2)C1` (centres unmarked) [171 (Int-3), 1-(4-(trifluoromethyl)phenyl)-1,2,3,4-tetrahydroquinolin-3-amine]: the half-maximal inhibitory concentration (IC50) lay within 1000 to 20000 nM.

Compound `C=CC(=O)NC1Cc2c(-c3noc(=O)[nH]3)cccc2N(c2ccc(C(F)(F)F)cc2)C1` (centres unmarked) [compound 166, N-(5-(5-oxo-4,5-dihydro-1,2,4-oxadiazol-3-yl)-1-(4-(trifluoromethyl)phenyl)-1,2,3,4-tetrahydroquinolin-3-yl)acrylamide] showed an IC50 above 20000 nM.

With `C=CC(=O)NCC1CCc2ccccc2N1Cc1cccc(C(F)(F)F)c1` (centres unmarked) [compound 190, N-((1-(3-(trifluoromethyl)benzyl)-1,2,3,4-tetrahydroquinolin-2-yl)methyl)acrylamide], the IC50 was below 1000 nM.

The compound `C=CC(=O)NCC1Cc2c(Cc3noc(=O)[nH]3)cccc2N(c2ccc(C(F)(F)F)cc2)C1` (centres unmarked) [Cpd. No. 168, N-((5-((5-oxo-4,5-dihydro-1,2,4-oxadiazol-3-yl)methyl)-1-(4-(trifluoromethyl)phenyl)-1,2,3,4-tetrahydroquinolin-3-yl)methyl)acrylamide] came in with an IC50 below 1000 nM.

Compound `C=CC(=O)NC1Cc2ccccc2N(S(=O)(=O)c2ccc(C(F)(F)F)cc2)C1` (centres unmarked) [compound 187, N-(1-((4-(trifluoromethyl)phenyl)sulfonyl)-1,2,3,4-tetrahydroquinolin-3-yl)acrylamide] yielded a concentration for half-maximal inhibition (IC50) below 1000 nM.

Turning to `C=CC(=O)NC1Cc2ccccc2N(C(=O)C2CCCCC2)C1` (centres unmarked) [Cpd. No. 173, N-(1-(cyclohexanecarbonyl)-1,2,3,4-tetrahydroquinolin-3-yl)acrylamide], the IC50 was above 20000 nM.

In turn, `C=CC(=O)NC1Cc2ccccc2N(c2cc(F)ccc2F)C1` (centres unmarked) [compound 026, N-(1-(2,5-difluorophenyl)-1,2,3,4-tetrahydroquinolin-3-yl)acrylamide] had an IC50 below 1000 nM.

In the case of `C=CC(=O)NCC1Cc2ccccc2N(c2ccc(SC(F)(F)F)cc2)C1` (centres unmarked) [compound 114, N-((1-(4-((trifluoromethyl)thio)phenyl)-1,2,3,4-tetrahydroquinolin-3-yl)methyl)acrylamide], the IC50 was below 1000 nM.

In turn, `C=CC(=O)NC1Cc2ccccc2N(c2cccc(-c3ccccc3)c2)C1` (centres unmarked) [compound 009, N-(1-([1,1′-biphenyl]-3-yl)-1,2,3,4-tetrahydroquinolin-3-yl)acrylamide] displayed a half-maximal inhibitory concentration (IC50) of 1000 to 20000 nM.

In the case of `CNS(=O)(=O)CCNCC1Cc2ccccc2N(c2ccc(C(F)(F)F)cc2)C1` (centres unmarked) [compound 124, N-methyl-2-(((1-(4-(trifluoromethyl)phenyl)-1,2,3,4-tetrahydroquinolin-3-yl)methyl)amino)ethane-1-sulfonamide], the IC50 is 1000 to 20000 nM.

Consider `C=CC(=O)NCC1Cc2ccccc2N(c2ccc(C(F)(F)F)cc2)C1` (single isomer, unassigned) [084-En2, N-((1-(4-(trifluoromethyl)phenyl)-1,2,3,4-tetrahydroquinolin-3-yl)methyl)acrylamide], for which the concentration for half-maximal inhibition (IC50) was below 1000 nM.

Consider `N#CCCNCC1Cc2ccccc2N(c2ccc(C(F)(F)F)cc2)C1` (centres unmarked) [compound 126, 3-(((1-(4-(trifluoromethyl)phenyl)-1,2,3,4-tetrahydroquinolin-3-yl)methyl)amino)propanenitrile], for which the IC50 lay within 1000 to 20000 nM.

For the compound `C=CC(=O)NC1Cc2c(NC(=O)OC(C)(C)C)cccc2N(c2ccc(C(F)(F)F)cc2)C1` (centres unmarked) [compound 074, tert-butyl (3-acrylamido-1-(4-(trifluoromethyl)phenyl)-1,2,3,4-tetrahydroquinolin-5-yl)carbamate], the IC50 is below 1000 nM.

In turn, `CCC(=O)NC1Cc2ccccc2N(c2ccc(C(F)(F)F)cc2)C1` (centres unmarked) [compound 037, N-(1-(4-(trifluoromethyl)phenyl)-1,2,3,4-tetrahydroquinolin-3-yl)propionamide] came in with a half-inhibitory concentration (IC50) of 1000 to 20000 nM.

In turn, `C=CC(=O)NC1Cc2ccccc2N(c2ccc(C(F)(F)F)cn2)C1` (centres unmarked) [compound 011, N-(1-(5-(trifluoromethyl)pyridin-2-yl)-1,2,3,4-tetrahydroquinolin-3-yl)acrylamide] showed a 50% inhibitory concentration (IC50) below 1000 nM.

In turn, `C=CC(=O)NC1Cc2ccccc2N(c2ccc(F)cc2)C1` (centres unmarked) [compound 035, N-(1-(4-fluorophenyl)-1,2,3,4-tetrahydroquinolin-3-yl)acrylamide] had an IC50 below 1000 nM.

Turning to `C=CC(=O)NCC1Cc2ccccc2N(c2cc(F)ccc2F)C1` (centres unmarked) [compound 110, N-((1-(2,5-difluorophenyl)-1,2,3,4-tetrahydroquinolin-3-yl)methyl)acrylamide], the concentration for half-maximal inhibition (IC50) is below 1000 nM.

Take `C=CC(=O)NC1Cc2ccccc2N(c2ccc(F)cc2F)C1` (centres unmarked) [compound 036, N-(1-(2,4-difluorophenyl)-1,2,3,4-tetrahydroquinolin-3-yl)acrylamide]: the IC50 was below 1000 nM.

Turning to `C=CC(=O)NCC1Cc2ccccc2N(c2ccc(F)cc2F)C1` (centres unmarked) [compound 102, N-((1-(2,4-difluorophenyl)-1,2,3,4-tetrahydroquinolin-3-yl)methyl)acrylamide], the IC50 is below 1000 nM.

Take `O=S1(=O)CCN1CC1Cc2ccccc2N(c2ccc(C(F)(F)F)cc2)C1` (centres unmarked) [compound 123, 2-((1-(4-(trifluoromethyl)phenyl)-1,2,3,4-tetrahydroquinolin-3-yl)methyl)-1,2-thiazetidine-1,1-dioxide]: the IC50 is below 1000 nM.

`C=CC(=O)NC1Cc2c(NC(C)=O)cccc2N(c2ccc(C(F)(F)F)cc2)C1` (centres unmarked) [compound 076, N-(5-acetamido-1-(4-(trifluoromethyl)phenyl)-1,2,3,4-tetrahydroquinolin-3-yl)acrylamide] yielded a concentration for half-maximal inhibition (IC50) below 1000 nM.

Take `OCCNC1Cc2ccccc2N(c2ccc(C(F)(F)F)cc2)C1` (centres unmarked) [compound 043, 2-((1-(4-(trifluoromethyl)phenyl)-1,2,3,4-tetrahydroquinolin-3-yl)amino)ethan-1-ol]: the IC50 was below 1000 nM.

The next test relates to NCI-1H226. Description: Mesothelioma cell line proliferation assay, H226 (ATPlite). The class given is cell-based. The note with it: Homo sapiens, NCI-H226, 144 h, 6 days with compound. How it is done: Mesothelioma cell lines, NCI-1H226 and NCI-1H2052 (all sourced from the ATCC cell culture collection) are plated in 96-well plates (Corning® 96 Well White Polystyrene Microplate clear flat bottom, white polystyrene (TC-Treated)), at 1500 cells/well in full medium (RPMI 1640 ATCC modification with L-glutamine, HEPES, Phenol Red, Sodium Pyruvate, High glucose, Low sodium bicarbonate and 10% fetal bovine serum). Cells are incubated overnight at 37° C. in an incubator with 5% C02. Then compounds, dissolved in DMSO, are added in dose-response. Cells are incubated with compound dilutions for another 6 days at 37° C. in an incubator with 5% C02. Cell viability is quantitated using the ATPlite kit (Perkin-Elmer) and the luminescence is read-out using an Envision instrument (Perkin-Elmer). The amount of relative light units produced using the ATPlite kit is used to calculated percent of inhibition.
The activities of some example compounds are depicted in the table below. The activity ranges A, B and C refer to EC50 values in the mesothelioma cell line proliferation assay as described as follows: “A”: EC50<1 μM; “B”: 1 μM s EC50≤10 μM and “C”: EC50≥10 μM; NT: not tested.
Background: ATP-based viability assays read luminescence as a measure of living cells.
The term EC50 denotes the concentration needed to bring the measured effect to its halfway point. In the case of `C=CC(=O)NC1Cc2c(OC)cccc2N(c2ccc(C(F)(F)F)cc2)C1` (centres unmarked) [compound 073, N-(5-methoxy-1-(4-(trifluoromethyl)phenyl)-1,2,3,4-tetrahydroquinolin-3-yl)acrylamide], the half-maximal effective concentration (EC50) is below 1000 nM.

(Values after US20240025856A1, “1,2,3,4-TETRAHYDROQUINOLINE DERIVATIVES AS INHIBITORS OF THE YAP/TAZ-TEAD ACTIVATION FOR TREATING CANCER” (KATHOLIEKE UNIVERSITEIT LEUVEN, priority 2020, published 2024).)
